pIC50: −log10 of the molar value. Entries after “also recorded” stand apart in the source; their conditions may differ. Read-outs that look alike come from different tables or passages of the source. Blank lines part the entries; values can stand above or below the compound they belong to. Where a SMILES comes first, the peptide text is derived from it. [ ]: non-standard residue; d: D form. dNle = CCCC[C@@H](N)C(=O)O; Ahx = NCCCCCC(=O)O; βAla = NCCC(=O)O
Assays:
SSP25 cells [1] = assay: Selective killing, Cytation imaging of SSP25 cells; format: cell-based; conditions: 10 μM
Procedure: To assess the specificity of compounds disclosed herein in targeting cancers with overexpression of RAD51, Compound 1 was tested against primary fibroblasts and SSP25 cells (cholangiocarcinoma cell line) (FIG. 5). First, 5,000 cells were incubated in 96-well culture plates overnight. Cells were grown in DMEM or RPMI, respectively, with 10% FBS, and […] was added to a concentration of 10 μM and imaging commenced using a Cytation™ instrument using approximately 5 minute time points. DAPI was used to visualize the nuclei and mitotracker-red was used to observe mitochondria. […] Furthermore, cell morphology was affected within 5 minutes of imaging, and the macrobubble phenotype was stable for further periods of time.

A549 cells [2] = assay: Intracellular calcium imaging with Fluo-2-AM; format: cell-based; conditions: 30 μM compound, pre-incubation with 2.5 μM Fluo-2-AM
Source text: Timestamps for the duration of the experiment are indicated in each panel.

SSP-25 cells = assay: xCELLigence cell death assay in SSP-25 cells (cellular assay for RAD51 inhibition); format: cell-based; conditions: concentration gradient added at 20 hour mark, only values with R^>0.85 shown
Procedure: The efficacy of the peptides described herein was assessed by their ability to cause death in SSP-25 cells, which have amplification of RAD51 and are dependent on its activity.
First, 5,000 SSP25 cells were plated, and adherence and growth was measured for 20 hours using live measurements of current impedance through the plate using the xCELLigence™ instrument. At the 20 hour mark, a concentration gradient of each compound or a PBS control was added to the SSP-25 cells, which were cultured in […] RMPI media with 10% FBS. […] Only values with confidence and R^>0.85 are shown.

fresh human RBCs = format: cell-based
Procedure: To assess the nonspecific lytic properties of each compounds disclosed herein, each mentioned compound was tested for hemolytic properties against fresh human RBCs. Briefly, donor blood was drawn into a K2EDTA anticoagulant tube from multiple O+ donors. The blood was washed 3 times in PBS. RBCs were diluted to 2% in PBS and compounds were added at various concentrations. Samples were incubated at 37 C for 1 hr, then centrifuged at 2200 rpm for 5 min. Supernatants were measured for absorbance at 450 nm or 405 nm. The percentage hemolysis was calculated as lysis relative to 1% Triton X-100 incubation.

SSP25 cells [3] = assay: xCELLigence cell death assay with necroptosis or apoptosis inhibitor; format: cell-based; conditions: for cell death with added necroptosis inhibitor Necrostatin: 40 μM compound + 50 μM Necrostatin; for cell death with added apoptosis inhibitor z-VAD: 40 μM compound + 100 μM z-VAD
Procedure: Further experiments were performed to elucidate the method of cell death induced by Compound 1. In one experiment, xCELLIGENCE cell death assays as in Examples 1 and 5 were performed, treating with either a necroptosis inhibitor (Necrostatin, 50 μM) alone or in combination with Compound 1 (40 μM). In another experiment, xCELLIGENCE cell death assays as in Examples 1 and 5 were performed, treating with either a apoptosis inhibitor (z-VAD, 100 μM) alone or in combination with Compound 1 (40 μM).

A549 cells [4] = assay: A549 cell growth/death, xCELLigence and microscopy; format: cell-based; conditions: xCELLigence, concentration gradient
Procedure: To assess the growth inhibitory properties of compounds disclosed herein, 10 μM of Compound 1 was tested against a PBS mock treatment for growth of A549 cells using microscopy at the indicated timepoints shown in the top right corner of each panel of FIG. 2. […] First, 5,000 A549 cells were plated, and adherence and growth was measured for 20 hours using live measurements of current impedance through the plate using the xCELLigence™ instrument. At the […] mark, a concentration gradient of Compound 1 or a PBS control was added to the A549 cells, which were cultured in 100 μL DMEM media with 10% FBS.

A549 xenograft = A549 xenograft in athymic nu/nu mice, Compound 1 IT and IP; format: in vivo; conditions: for tumor volume / size, intra-tumoral dosing: 50 microliters of 10 or 20 mg/ml IT, day 0, day 3 and every other day
Procedure: Female athymic nu/nu mice (6-8 weeks old) were purchased from Simonsen labs (n=12) and were housed at the Murigenics vivarium in Vallejo. The mice were acclimated to the setting of the vivarium for 5 days and maintained on a standard chow diet; 12:12 dark/light cycle; and group housed (3 mice per cage) in HEPA-filtered cages. After acclimation, each mouse was injected subcutaneously (lower left abdominal flank) with 5×10^6 A549 (ATCC: CCL-185) cells mixed with 1:1 (v/v) with Matrigel solution. When the tumors reached a volume of—100 mm3, the mice were divided into separate treatment groups for the desired treatments. Experiments using both intra-tumoral (IT) and intraperitoneal (IP) administration were performed and the data are reported in FIGS. 10 and 11.
Mice prepared as described above were divided into 4 groups: • Group 1: received an intra-tumoral injection of 50 microliters of Phosphate Buffered Saline (mock) (n=3) • Group 2: received an intra-tumoral injection of 50 microliters of 10 mg/ml Compound 1 in Phosphate Buffered Saline (n=3) • Group 3: received an intra-tumoral injection of 50 microliters of 20 mg/ml Compound 1 in Phosphate Buffered Saline (n=3)
The 50 microliter injections were carried out with a (30 g needle). The injections were administered on day zero and then again on day 3, and every other day. The length (L) and the width (W) of the tumor mass was measured with a Vernier caliper and the tumor volume (V) was calculated as V=(L×WA2)/2. The relative tumor volume of each tumor mass on each measurement day was normalized against the initial volume of the same mass on day zero right before initiation of injections. […]
The injections were carried out with a 30 g needle. […] The length (L) and the width (W) of the tumor mass was measured with a Vernier caliper and the tumor volume (V) was calculated as V=(L×WA2)/2. […]

SSP25 cells [5] = assay: xCELLigence cell death assay with intracellular calcium chelators; format: cell-based; conditions: relative to compound alone
Procedure: To investigate the hypothesis that peptide treatment of cells causes cell death via increases in intracellular free calcium levels, Compound 1 alone and in combination with two different intracellular calcium chelators (1,2-Bis(2-aminophenoxy)ethane-N,N,N′,N′-tetraacetic acid tetrakis(acetoxymethyl ester) aka “BAPTA-AM”, and ammoniated ruthenium oxychloride aka “ruthenium red”) was tested in an xCELLigence™ cell death assay as in Example 1. The intracellular calcium chelators alone were also evaluated on the cells.

in vitro [6] = conditions: human, microsomes
Procedure: (§1) For HLM and MLM stability studies, each compound was incubated with the liver microsome mixture for up to an hour at 37 C in the presence of NADPH.
(§2) After the incubations, the reactions were stopped and the compounds were analyzed according to the method developed for each.

[7] = Mouse pharmacokinetics, IV and IP dosing; format: in vivo, mice
Procedure: The pharmocokinetic parameters in mice by both intravenous (IV) and intraperitoneal (IP) dosing, as well as the serum and microsome stability for each of compound 22, 23, 24, and 25 was determined. Bioanalytical methods were developed for each compound using an LC-MS/MS method with LLOQ>100 ng/ml.
For in-vivo PK work, at least 3 mice were used per timepoint. For each compound, the animals were injected either IV or IP with the compound. IV injections used 1 mg/kg, and IP injections were at 15 mg/kg. Blood was collected at the indicated timepoints and analyzed according to the bioanalytical method developed.

in vitro [8] = conditions: mouse, serum
Procedure: Serum stability data was obtained using the appropriate animal serum, each incubated with the compound for up to two hours at 37 C.

in vitro [9] = conditions: mouse, microsomes
Procedure: as §1, §2

Compound: Ac-lmrsvrlrvGlrkrrrrrrr-NH2 (Ac-[dL][dM][dR][dS][dV][dR][dL][dR][dV]G[dL][dR][dK][dR][dR][dR][dR][dR][dR][dR]-NH2) [Compound 1]
time until cell morphology was affected (SSP25 cells [1]): ≤ 5 minutes
cell morphology / cell death in SSP25 cells (SSP25 cells [1]; approx. 5 minute time points): drastically affected in SSP25 cells
intracellular calcium (Fluo-2 dye) (A549 cells [2]): accumulation of intracellular calcium
pIC50 (SSP-25 cells): 5.62
% Hemolysis (250 uM) (fresh human RBCs): 3%
cell death with added necroptosis inhibitor Necrostatin (SSP25 cells [3]): addition of the inhibitor has no effect on the activity
cell death with added necroptosis inhibitor Necrostatin (SSP25 cells [3]; listed as compound 1): does not cause cell death through necroptosis or apoptosis
cell death with added apoptosis inhibitor z-VAD (SSP25 cells [3]): addition of the inhibitor has no effect on the activity
cell death with added apoptosis inhibitor z-VAD (SSP25 cells [3]; listed as compound 1): does not cause cell death through necroptosis or apoptosis
effect on growth / cell death of A549 cells (A549 cells [4]): dose-dependent effect on the growth of A549 cells displaying acute cell death kinetics
tumor volume / size, intra-tumoral dosing (A549 xenograft): measurable decreases in tumor size as early as day 3
tumor volume / size, intra-tumoral dosing (A549 xenograft; listed as compound 1): significant effects on tumor volume after only a few days of treatment
tumor size, intra-peritoneal dosing (A549 xenograft; 125 microliters of 3 mg/ml IP, single dose on day seven): measurable decreases in tumor size as early as 3 days after injection (day 10)
cell death with added calcium chelator BAPTA-AM (SSP25 cells [5]; 10 μM compound + 10 μM BAPTA-AM): rescues cell death relative to compound alone; also recorded: addition of BAPTA-AM rescues cell death
cell death with added calcium chelator ruthenium red (SSP25 cells [5]; 10 μM compound + 40 μM Ruthenium red): rescues cell death relative to compound alone; also recorded: addition of ruthenium red rescues cell death

half-life (in vitro [6]): 0.947 h
AUC Extr ([7]; 1 mg/kg IV): 28.8%
Vss ([7]; 15 mg/kg IP): 2.95 L/kg
AUC(0-inf) ([7]; in vivo, 1 mg/kg IV): 528 ng·h/mL
AUC(0-t) ([7]; in vivo, 1 mg/kg IV): 375 ng·h/mL
C0 ([7]; in vivo, 1 mg/kg IV): 683 ng/mL
MRT inf ([7]; in vivo, 1 mg/kg IV): 0.779 h
clearance ([7]; in vivo, 1 mg/kg IV): 31.7 mL/min/kg
AUC(0-inf) ([7]; in vivo, 15 mg/kg IP): 1010 ng·h/mL
MRT inf ([7]; in vivo, 15 mg/kg IP): 17.9 h
half-life ([7]; in vivo, ip, 15 mg/kg, 15 mg/kg IP, read-out: t½ (converted)): 1.89 h
half-life ([7]; in vivo, ip, 15 mg/kg, IP (15 mg/kg), read-out: Half-life Mouse IP): 1.88 h
Vd ([7]; in vivo, iv, 1 mg/kg, 1 mg/kg IV, read-out: Vss): 1.48 L/kg
Vd ([7]; in vivo, iv, 1 mg/kg, 1 mg/kg IV, read-out: Vz): 1.51 L/kg
half-life ([7]; in vivo, iv, 1 mg/kg, 1 mg/kg IV, read-out: t½ (converted)): 0.549 h
half-life ([7]; in vivo, iv, 1 mg/kg, IV (1 mg/kg), read-out: Half-life Mouse IV): 0.549 h
half-life (in vitro [8]): 4.62 h
half-life (in vitro [9]): 1.93 h
Compound: CCCC[C@@H](NC(=O)[C@@H](CC(C)C)NC(C)=O)C(=O)N[C@H](CCCNC(=N)N)C(=O)N[C@H](C)C(=O)N[C@@H](C(=O)N[C@H](CCCNC(=N)N)C(=O)N[C@H](CC(C)C)C(=O)N[C@H](CCCNC(=N)N)C(=O)N[C@@H](C(=O)NCCC(=O)N[C@H](CC(C)C)C(=O)N[C@H](CCCNC(=N)N)C(=O)NCCCCCC(=O)N[C@H](CCCNC(=N)N)C(=O)NCCCCCC(=O)N[C@H](CCCNC(=N)N)C(=O)NCCCCCC(=O)N[C@H](CCCNC(=N)N)C(=O)NCCCCCC(=O)N[C@H](CCCNC(=N)N)C(=O)NCCCCCC(=O)N[C@H](CCCNC(=N)N)C(=O)NCCCCCC(=O)N[C@H](Cc1ccc(O)cc1)C(N)=O)C(C)C)C(C)C [Compound 24, Ac-l{d-norLeucine}ravrlrv[beta-ALA]lr(Ahx)r(Ahx)r(Ahx)r(Ahx)r(Ahx)r(Ahx)y-NH2] (Ac-[dL][dNle][dR][dA][dV][dR][dL][dR][dV][βAla][dL][dR][Ahx][dR][Ahx][dR][Ahx][dR][Ahx][dR][Ahx][dR][Ahx][dY]-NH2)
pIC50 (SSP-25 cells): 5.21
% Hemolysis (250 uM) (fresh human RBCs; red cells of human, 1 h, 250): 3%
